Experimental data reported in PMC4521150, “Discovery of Novel Inhibitors and Fluorescent Probe Targeting NAMPT” (Scientific Reports, 2015).
Where two headings read alike, the source gives them in different places.

Experiments:
[1] = molecular target: T1, recombinant human NAMPT (Homo sapiens, UniProt P43490); assay: HTS / fixed-concentration NAMPT activity screen (fluorometric); assay type: biochemical; details: 20 μM compound; analogues of the 46 non-fluorescent inhibitors
T1 construct: His tag (N); made in house; host or cells: E. coli BL21-CodonPlus (DE3)-RIL, pET21a+ vector
T1 sequence (P43490 whole entry): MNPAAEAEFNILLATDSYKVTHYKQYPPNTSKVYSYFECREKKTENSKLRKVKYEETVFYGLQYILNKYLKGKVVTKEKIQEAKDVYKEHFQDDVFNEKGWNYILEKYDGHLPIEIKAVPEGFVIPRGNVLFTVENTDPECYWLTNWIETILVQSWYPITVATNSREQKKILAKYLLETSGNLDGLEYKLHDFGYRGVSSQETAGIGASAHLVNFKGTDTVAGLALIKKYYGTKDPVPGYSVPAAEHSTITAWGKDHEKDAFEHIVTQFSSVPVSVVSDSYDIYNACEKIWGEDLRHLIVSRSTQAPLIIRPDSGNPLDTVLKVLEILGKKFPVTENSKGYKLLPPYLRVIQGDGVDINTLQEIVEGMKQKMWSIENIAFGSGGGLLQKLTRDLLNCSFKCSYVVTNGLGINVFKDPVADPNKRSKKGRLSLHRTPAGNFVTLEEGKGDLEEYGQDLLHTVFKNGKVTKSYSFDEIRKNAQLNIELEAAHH
Excerpt: Using our previously established high throughput screening (HTS) platform and recombinant human NAMPT[14][15], we performed a HTS on a chemical library containing 30000 small-molecules (Chemdiv, CA, USA). Our HTS targeting NAMPT was developed based on a fluorometric method for NAMPT activity assay by measuring the fluorescence of nicotinamide mononucleotide (NMN) derivative resulting from the NAMPT enzymatic product NMN through simple chemical reactions (Fig. 1A). The 30000 compounds were dissolved with dimethyl sulfoxide (DMSO); most of compounds were soluble at 10 mM stock solution (94.1%), some compounds insoluble at 10 mM were soluble at 2.5 mM stock solution (4.4%), and the remaining compounds insoluble at 2.5 mM (1.5%) were diluted further during HTS experiments (Fig. 1B). To guarantee the quality of screening, S/N ratio, CV and Z’ factors were monitored throughout the screenings, and all three indices met the requirements of HTS (Fig. 1C–E). After a primary screen and a secondary screen of all compounds at 20 μM, 242 compounds were selected as the hits of NAMPT inhibitors (NAMPT activity < 40%), and the hit rate was ~0.8% (Fig. 1F). […] All these 55 compounds were not reported as NAMPT inhibitors previously. Among the 55 compounds, we noted 46 compounds were non-fluorescent and 9 compounds were fluorescent (Fig. 1F). These fluorescent and non-fluorescent compounds were further studied separately.
HTS was performed using our previously reported method. 0.5 μl stock of each compound (1 mM DMSO stock) was transferred to a 96-well PCR plate for screening. In the primary screening, 5 ng NAMPT in 20 μl reaction buffer [0.4 mM phosphoribosylpyrophosphate (PRPP, Sigma), 2 mM ATP, 0.02% BSA, 2 mM DTT, 12 mM MgCl2 and 50 mM Tris-HCl (pH = 7.5)] was added into each well, the plate was incubated at 37 °C for 5 min, then 4.5 μl substrate of NAM was added to initiate the enzyme reaction, resulting in a final concentration of 2% DMSO, 2 μg/ml NAMPT, 0.2 μM NAM and 20 μM compound. After reacting at 37 °C for 15 min, the enzyme reaction was terminated by heating at 95 °C for 1 min and cooling in an ice bath. The product of NMN was detected through the following approach: after adding 10 μl 20% acetophenone in DMSO and 10 μl 2 M KOH into each well, the mixture was vortex-mixed and kept in ice bath for 2 min. Then 45 μl 88% formic acid was added and the mixture was incubated at 37 °C for 10 min. Finally, 85 μl mixtures in each well were transferred into a flat-bottom 96-well black plate (Greiner), and the fluorescence (F) was measured using a Tecan Infinity M200 plate reader (Tecan Group Ltd.) by setting the excitation and emission wavelength to 382 nm and 445 nm respectively. The last row of each 96-well plate includes six wells of background controls and six wells of reference controls. The relative enzyme activity (Activity%) regulated by specific compound was calculated according to equation (1):
F0 was the averaged fluorescence of six background controls, representing zero activity from a simulated enzyme reaction with only NAMPT but no NAM and compound; F100% was the averaged fluorescence of six reference controls, representing 100% activity from intact enzyme reaction without compound perturbation.
Compounds with Activity% less than 40% were considered as inhibitors and subjected to a secondary screen inhibition validation, in which another background control (FC0), a simulated enzyme reaction with NAMPT and compound but no NAM, was introduced to eliminate the direct and/or indirect influence from compound. At this stage, the Activity% was calculated according to equation (2): […]

[2] = test system: HepG2 cells; assay: Cell viability assay (CCK-8) in HepG2 cells; assay type: cell-based, human; details: for IC50: HepG2, 48 h, CCK-8, read-out: IC50 for inhibitory effect on HepG2 cell viability
Method: Cell viability was determined by our previous method[27] using the Cell Counting Kit-8 (CCK-8, Dojindo, Japan). In human hepatocellular carcinoma cell line HepG2, cells were seeded in 96-well plate and starved for over 12 h with serum-free DMEM at 60~70% confluency, then treated with compounds or vehicle for 48 h. To determine the IC50 values of inhibitors, compounds with various concentrations were added into the 96-well plate. 10 μl CCK-8 solution was added to the culture medium and incubated at 37 °C for 1 h. The absorbance at 450 nm (A450) was detected by a plate reader. Each experiment was carried out in triplicate in three replicate wells. The IC50 values were determined by non-linear fitting of the concentration-dependent curves with the four-parameter IC50 logistic equation.

NAMPT inhibition activity at 20 μM [1]: Yes
IC50 [2]: ~2 µM
IC50 ([2]; Homo sapiens): 1.95 ± 0.17 µM
SMILES: CCCn1c(=O)c(-c2ccc(C(=O)NCc3cccnc3)cc2)nc2ccccc21 [M049-0244]
Rescue of cell viability by exogenous NMN ([2]; HepG2, 3 μM compound, NMN at 300 μM): totally rescued
Effect on HepG2 cell viability at 1 and 10 μM ([2]; two concentrations (1 and 10 μM)): significant inhibition on HepG2 cell viability in a dose dependent manner
